Results on one compound are retold here after patent US20100105758A1 (Centre de Recherche Public de la Sante, priority 2006, published 2010).

The subject of assay [1] is primary human macrophages. Put plainly: MMP-9 secretion by primary macrophages, ELISA in conditioned medium. As to conditions: Ado and EHNA 10 μmol/L each, 15 min then 24 hours, with or without LPS 100 ng/ml. It is filed as cell-based. The procedure: FIG. 1. […] Cell culture. All cell culture reagents were from Lonza (Verviers, Belgium) unless specified otherwise. Peripheral venous blood was obtained from healthy volunteers. Peripheral blood mononuclear cells were obtained by Ficoll gradient. Monocytes were purified by negative selection using the Monocyte Isolation Kit II (Myltenyi Biotec GmbH, Bergisch Gladbach, Germany). […] Macrophages were incubated for 15 minutes with Ado/EHNA (10 μmol/L) or vehicle, then LPS (100 ng/ml) or vehicle was added and cells were incubated for another 24 hours before harvesting. Cells from the monocyte-like line THP-1 (ATCC, LGC Promochem, Teddington, UK) were propagated at 37° C.-5% CO2 in RPMI 1640 medium supplemented with L-glutamine (2 mM), Penicillin (100 Units/ml), Streptomycin (100 μg/ml), non-essential amino acids solution (1 μM), sodium pyruvate (1 mM), and 10% heat-inactivated fetal calf serum (FCS) (Eurobio, Les Ulys, France). For experiments, FCS in culture medium was reduced to 1%. Cells were treated for 15 min with EHNA vehicle (DMSO), Ado (0.01 to 100 μM), Ado receptors agonists (0.1 to 10 μM), EHNA (10 μM) or Dipyridamole (DIP) (10 μM). Cells were then differentiated into macrophages with 150 nM phorbol myristate actetate (PMA) for 24 hours. Macrophages were subsequently treated with LPS (1 to 1000 ng/ml), fMLP (10^−7 M) or H2O2 (10 mM) for another 24 hours. […] ELISA.

The subject of another assay is neutrophils. The settings on record: through A2a receptor; cited from earlier work.
Assay [2] has as its system THP-1-derived macrophages. The experiment in a line: MMP-9 secretion by THP-1-derived macrophages, gelatin zymography and densitometry. It is filed as cell-based. Here is the method: Cells were incubated for 15 min with increasing concentrations of Ado and 10 μM EHNA before differentiation with 150 nM PMA for 48 hours. […] Concentrations of 10 μM Ado and 10 μM EHNA were used in further experiments. […] FIG. 2. […] THP-1 cells were treated for 15 min with Ado and 10 μM EHNA or vehicle before differentiation to macrophages with 150 nM PMA for 48 hours. EHNA, which inhibits Ado deaminase, and DIP, which inhibits Ado transport, were used to enhance endogenous Ado concentration. Gelatinase activity was measured in cell-free conditioned medium by zymography and densitometry. A. A representative zymogram is shown. […] C. Time-course experiment. […] FIG. 3. […] A. THP-1 cells were treated for 15 min with 10 μM Ado and 10 μM EHNA or vehicle before differentiation to macrophages with 150 nM PMA for 48 hours. […] B. THP-1 cells were treated for 15 min with 0.1, 1 or 10 μM of Ado receptors agonists (CPA, A1-specific; CGS21680, A2a-specific; IB-MECA, A3-specific). […] Gelatinase activity was assessed in conditioned medium. […] C. […] Cells were transfected with siRNA specific for A2a, A2b or A3 Ado receptors, incubated for 48 hours to achieve down-regulation of Ado receptors expression, treated for 15 min with 10 μM Ado and 10 μM EHNA or vehicle before differentiation to macrophages with 150 nM PMA for 48 hours. Conditioned medium was analysed by gelatin zymography. […] Cell culture. All cell culture reagents were from Lonza (Verviers, Belgium) unless specified otherwise. Peripheral venous blood was obtained from healthy volunteers. Peripheral blood mononuclear cells were obtained by Ficoll gradient. Monocytes were purified by negative selection using the Monocyte Isolation Kit II (Myltenyi Biotec GmbH, Bergisch Gladbach, Germany). […] Macrophages were incubated for 15 minutes with Ado/EHNA (10 μmol/L) or vehicle, then LPS (100 ng/ml) or vehicle was added and cells were incubated for another 24 hours before harvesting. Cells from the monocyte-like line THP-1 (ATCC, LGC Promochem, Teddington, UK) were propagated at 37° C.-5% CO2 in RPMI 1640 medium supplemented with L-glutamine (2 mM), Penicillin (100 Units/ml), Streptomycin (100 μg/ml), non-essential amino acids solution (1 μM), sodium pyruvate (1 mM), and 10% heat-inactivated fetal calf serum (FCS) (Eurobio, Les Ulys, France). For experiments, FCS in culture medium was reduced to 1%. Cells were treated for 15 min with EHNA vehicle (DMSO), Ado (0.01 to 100 μM), Ado receptors agonists (0.1 to 10 μM), EHNA (10 μM) or Dipyridamole (DIP) (10 μM). Cells were then differentiated into macrophages with 150 nM phorbol myristate actetate (PMA) for 24 hours. Macrophages were subsequently treated with LPS (1 to 1000 ng/ml), fMLP (10^−7 M) or H2O2 (10 mM) for another 24 hours. Analysis of gelatinase activity. Gelatin zymography was performed on culture supernatants to assess secreted MMP-9 activity. Briefly, conditioned medium was loaded on SDS-polyacrylamide gels containing 0.2% gelatin under non reducing conditions. After electrophoresis, gels were washed and incubated overnight at 37° C. in assay buffer (50 mM Tris-HCl, pH 7.6, 200 mM NaCl, 5 mM CaCl2, and 0.02% Brij35). Subsequently, gels were stained in 0.1% Coomassie Blue and destained in 25% ethanol/8% acetic acid. Densitometry was achieved using the Gel Logic 2200 Digital Imaging system and Aida Software (Kodak, Zavemtem, Belgium).

In the case of `Nc1ncnc2c1ncn2[C@@H]1O[C@H](CO)[C@@H](O)[C@H]1O` [adenosine], the “MMP-9 secretion in cell supernatant as measured by ELISA” value in assay [1] is “mild but significant increase”; in assay [1] (listed as Ado), “significantly increased”. Besides, the “MMP-9 secretion by neutrophils” value with neutrophils is on record as “inhibits MMP-9 secretion”. For the same compound, the “increase of MMP-9 production” value in assay [2] (100 μM Ado with 10 μM EHNA, 15 min before differentiation with 150 nM PMA for 48 hours) was 3 fold. Also, in assay [2] (added alone or in combination, Ado 10 μM, EHNA 10 μM, DIP 10 μM, PMA 48 hours), the “MMP-9 secretion (zymography), modulators of Ado metabolism” value was “triggered MMP-9 secretion”. Moreover, the “incubation period necessary to reproduce the effect of Ado on MMP-9” value in assay [2] (time-course experiment, zymography of culture medium) is reported as “at least 18 hours”.
